Assay results as given in BindingDB's records for doi:10.1016/s0196-9781(98)00023-0 (Hungarian Academy of Sciences, 1998).
Several values for one entry are separate records, joined by “and”; a condition that tells them apart may be missing. Identical values can stand only once. Non-standard residues stand in square brackets, D forms with d. Residues, ends and D or L forms follow the SMILES beside them. Tic = O=C(O)[C@@H]1Cc2ccccc2CN1

What was measured:
[1] = target: Delta-type opioid receptor (Rattus norvegicus, UniProt P33533)
Sequence of Delta-type opioid receptor (P33533 whole entry): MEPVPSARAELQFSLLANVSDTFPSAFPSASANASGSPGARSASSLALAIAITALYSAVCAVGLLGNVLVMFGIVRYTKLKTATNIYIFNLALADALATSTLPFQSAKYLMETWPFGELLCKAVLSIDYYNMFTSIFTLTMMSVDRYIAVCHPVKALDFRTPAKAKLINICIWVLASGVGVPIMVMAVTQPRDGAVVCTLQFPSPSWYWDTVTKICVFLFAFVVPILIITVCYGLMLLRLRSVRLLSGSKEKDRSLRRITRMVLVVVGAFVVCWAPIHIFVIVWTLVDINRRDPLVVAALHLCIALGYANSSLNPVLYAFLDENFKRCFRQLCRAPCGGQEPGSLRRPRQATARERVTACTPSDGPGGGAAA

Mu-type opioid receptor = Mu-type opioid receptor (Rattus norvegicus, UniProt P33535)
Sequence of Mu-type opioid receptor (P33535 whole entry): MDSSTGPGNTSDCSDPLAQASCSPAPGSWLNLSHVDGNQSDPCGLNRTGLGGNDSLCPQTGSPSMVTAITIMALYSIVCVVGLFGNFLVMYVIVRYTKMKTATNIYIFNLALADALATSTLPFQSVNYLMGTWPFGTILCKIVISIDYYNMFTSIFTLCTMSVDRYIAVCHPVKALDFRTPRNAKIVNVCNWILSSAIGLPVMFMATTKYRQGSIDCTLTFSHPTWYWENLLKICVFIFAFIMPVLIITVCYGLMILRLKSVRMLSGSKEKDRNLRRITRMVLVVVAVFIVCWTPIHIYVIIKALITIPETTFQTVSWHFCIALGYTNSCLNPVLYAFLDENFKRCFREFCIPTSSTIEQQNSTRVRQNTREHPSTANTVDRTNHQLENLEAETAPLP

SMILES: CC(C)C[C@H](NC(=O)[C@H](Cc1ccccc1)NC(=O)CNC(=O)[C@@H](CO)NC(=O)[C@@H](N)Cc1ccc(O)cc1)C(=O)N[C@H](C(=O)O)[C@@H](C)O [DSLET-OH]
- Ki [1]: 7.34 nM and 8.71 nM

SMILES: COc1cccc2c1[C@]13CCN(CC4CC4)C(C2)[C@]1(OC)CCC(=O)C3
- Ki (Mu-type opioid receptor): 4.59 nM and 7.23 nM

SMILES: N[C@@H](Cc1ccc(O)cc1)C(=O)N1Cc2ccccc2C[C@H]1C(=O)N[C@@H](Cc1ccccc1)C(=O)N[C@@H](Cc1ccccc1)C(=O)O [TIPP] (H-Y[Tic]FF-OH)
- Ki [1]: 9150 nM and 1700 nM

SMILES: Oc1ccc2c3c1OC1c4[nH]c5ccccc5c4CC4(O)[C@H](C2)N(CC2CC2)CCC314 (some centres undefined) [NALTRINDOLE]
- Ki [1]: 10.8 nM and 25.7 nM
